Values of other authors in patent US20160324796A1, “COMPOSITIONS AND THEIR USE TO TREAT COMPLICATIONS OF ANEURYSMAL SUBARACHNOID HEMMORRHAGE” (Edge Therapeutics, Inc., priority 2007, published 2016).
Where two headings read alike, the source gives them in different places. Ends that are not written are not given here.

Columns and labels:
patients with SAH [1] = conditions: cited from earlier work; for patients with primary end point: placebo 27%; for patients with poor outcome (extended Glasgow Outcome Scale score </=4): placebo 24%
patients with SAH [2] = conditions: cited from earlier work
R-type calcium current = conditions: cited from earlier work
N-type calcium current = N-type calcium current (Homo sapiens, UniProt Q00975); conditions: at 300 nM to 500 nM; cited from earlier work
N-type calcium current, sequence (Q00975 whole entry): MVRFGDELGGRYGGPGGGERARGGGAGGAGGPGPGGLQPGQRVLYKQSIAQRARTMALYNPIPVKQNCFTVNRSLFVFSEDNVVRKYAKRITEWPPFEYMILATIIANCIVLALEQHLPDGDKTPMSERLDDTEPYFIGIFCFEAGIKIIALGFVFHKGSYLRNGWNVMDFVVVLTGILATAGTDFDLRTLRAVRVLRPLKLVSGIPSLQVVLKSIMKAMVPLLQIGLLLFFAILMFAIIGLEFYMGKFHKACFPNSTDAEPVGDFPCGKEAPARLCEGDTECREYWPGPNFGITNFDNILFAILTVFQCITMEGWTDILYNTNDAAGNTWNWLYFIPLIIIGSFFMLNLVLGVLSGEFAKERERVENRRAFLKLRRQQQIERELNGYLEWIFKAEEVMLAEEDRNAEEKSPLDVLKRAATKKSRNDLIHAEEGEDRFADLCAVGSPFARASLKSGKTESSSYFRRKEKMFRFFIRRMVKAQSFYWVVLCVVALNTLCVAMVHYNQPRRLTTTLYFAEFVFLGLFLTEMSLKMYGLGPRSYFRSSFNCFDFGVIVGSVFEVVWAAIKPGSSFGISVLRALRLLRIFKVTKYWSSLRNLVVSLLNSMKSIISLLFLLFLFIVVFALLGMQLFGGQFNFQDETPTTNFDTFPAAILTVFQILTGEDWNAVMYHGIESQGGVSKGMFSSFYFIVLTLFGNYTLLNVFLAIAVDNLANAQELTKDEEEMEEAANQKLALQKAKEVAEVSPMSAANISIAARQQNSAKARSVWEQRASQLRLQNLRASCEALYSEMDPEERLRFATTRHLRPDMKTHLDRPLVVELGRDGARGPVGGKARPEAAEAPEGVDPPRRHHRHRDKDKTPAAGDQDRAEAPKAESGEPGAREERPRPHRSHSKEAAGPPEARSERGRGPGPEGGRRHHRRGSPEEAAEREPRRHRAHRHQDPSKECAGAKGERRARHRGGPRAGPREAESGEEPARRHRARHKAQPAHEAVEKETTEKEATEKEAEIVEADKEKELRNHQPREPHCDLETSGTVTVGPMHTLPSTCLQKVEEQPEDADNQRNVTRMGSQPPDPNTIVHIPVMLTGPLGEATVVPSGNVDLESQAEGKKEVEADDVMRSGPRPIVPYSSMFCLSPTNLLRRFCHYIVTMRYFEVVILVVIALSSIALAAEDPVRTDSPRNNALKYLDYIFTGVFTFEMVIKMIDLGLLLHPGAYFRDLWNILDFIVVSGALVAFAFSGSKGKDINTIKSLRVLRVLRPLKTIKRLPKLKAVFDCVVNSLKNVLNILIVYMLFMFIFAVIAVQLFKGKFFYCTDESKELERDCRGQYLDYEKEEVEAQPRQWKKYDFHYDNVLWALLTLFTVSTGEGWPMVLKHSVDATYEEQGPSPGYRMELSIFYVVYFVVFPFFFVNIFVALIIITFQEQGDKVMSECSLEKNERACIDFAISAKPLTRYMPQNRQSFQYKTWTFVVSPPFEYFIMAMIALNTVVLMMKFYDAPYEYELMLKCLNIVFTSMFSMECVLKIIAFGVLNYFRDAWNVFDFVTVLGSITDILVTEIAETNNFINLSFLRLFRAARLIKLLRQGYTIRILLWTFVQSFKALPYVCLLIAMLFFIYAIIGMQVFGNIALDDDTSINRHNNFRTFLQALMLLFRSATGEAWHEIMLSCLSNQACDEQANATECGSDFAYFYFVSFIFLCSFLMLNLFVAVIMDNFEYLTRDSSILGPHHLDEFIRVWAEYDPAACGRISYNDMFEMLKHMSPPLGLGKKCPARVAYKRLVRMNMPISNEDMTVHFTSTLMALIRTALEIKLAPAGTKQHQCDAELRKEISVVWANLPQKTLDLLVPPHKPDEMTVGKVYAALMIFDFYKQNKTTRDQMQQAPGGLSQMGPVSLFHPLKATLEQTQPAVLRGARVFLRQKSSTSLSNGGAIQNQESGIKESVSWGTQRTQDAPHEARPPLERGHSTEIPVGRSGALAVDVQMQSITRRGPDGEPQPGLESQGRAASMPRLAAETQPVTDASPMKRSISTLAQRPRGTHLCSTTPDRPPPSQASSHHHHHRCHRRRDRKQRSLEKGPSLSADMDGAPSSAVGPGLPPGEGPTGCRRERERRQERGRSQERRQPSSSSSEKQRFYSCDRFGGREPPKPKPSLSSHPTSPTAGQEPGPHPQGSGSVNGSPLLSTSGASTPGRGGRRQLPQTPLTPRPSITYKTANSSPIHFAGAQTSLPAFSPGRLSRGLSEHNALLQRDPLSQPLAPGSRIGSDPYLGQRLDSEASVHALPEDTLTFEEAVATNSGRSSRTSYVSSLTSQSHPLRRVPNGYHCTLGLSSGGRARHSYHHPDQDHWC

[3] = test system: K+ and Na+ currents, and L, P/Q and T-type calcium currents; conditions: cited from earlier work

| Molecule | odds ratio, primary end point (patients with SAH [1]; 5 mg/h versus placebo, 95% CI 0.479-1.289, P=0.340) | odds ratio, poor outcome (patients with SAH [1]; 5 mg/h versus placebo, 95% CI 0.546-1.544, P=0.748) | patients with primary end point (patients with SAH [1]; 5 mg/h, 47/194) | patients with poor outcome (extended Glasgow Outcome Scale score </=4) (patients with SAH [1]; 5 mg/h) | odds ratio, primary end point (patients with SAH [1]; 15 mg/h versus placebo, 95% CI 0.275-0.818, P=0.007) | odds ratio, poor outcome (patients with SAH [1]; 15 mg/h versus placebo, 95% CI 0.802-2.227, P=0.266) | patients with primary end point (patients with SAH [1]; 15 mg/h, 28/188) | patients with poor outcome (extended Glasgow Outcome Scale score </=4) (patients with SAH [1]; 15 mg/h) | patients meeting primary composite endpoint (week 6) (patients with SAH [2]; 5 mg/h up to 14 days, 161 of 764 patients, placebo 25%) | relative risk reduction, primary composite endpoint (patients with SAH [2]; 5 mg/h versus placebo, 95% CI -4 to 33, p=0.10) | relative risk reduction, poor functional outcome (patients with SAH [2]; 5 mg/h versus placebo, −45 to 4, p=0.10) | patients with poor functional outcome (GOSE score </=4) (patients with SAH [2]; 5 mg/h, placebo 25%) | Mortality (week 12) (patients with SAH [2]; 5 mg/h, same in placebo) | block of R-type calcium current (R-type calcium current; neurohypophysial nerve endings, 40 nM) | effect on R-type current (R-type calcium current; preparations of the neuronal cell body, retinal ganglion cells and hippocampal pyramidal cells) | block of N-type calcium current (N-type calcium current) | effect on K+ and Na+ currents, and L, P/Q and T-type calcium currents [3] |
| --- | --- | --- | --- | --- | --- | --- | --- | --- | --- | --- | --- | --- | --- | --- | --- | --- | --- |
| COc1ccccc1Oc1c(NS(=O)(=O)c2ccc(C)cn2)nc(-c2ccnc(-c3nnn[nH]3)c2)nc1OCCO [clazosentan] | 0.786 | 0.918 | 24% | 25% | 0.474 | 1.337 | 15% | 28% | 21% | 17% | −18% | 29% | 6% | – | – | – | – |
| SNX-482: toxin from the tarantula Hysterocrates gigas, a 41 amino acid residue peptide with 3 disulfide linkages; putative R-type selective blocker (GVDKAGCRYMFGGCSVNDDCCPRLGCHSLFSYCAWDLTFSD; disulfide (positions not given here); UniProt P56854 1-41, looked up) | – | – | – | – | – | – | – | – | – | – | – | – | – | blocks | no significant effect | 30-50% | no effect |
